Series [1] deals with rats. The series can be described thus: Open field activity. It is filed as in vivo, rat. Conditions: 100 mg/kg, 2 h before; 60 min; not significantly different from vehicle (14,484 ± 1686 cm). How it is done:
Rats were habituated in a reversed light cycle room in home cages for at least 1 week and acclimated to the testing room for 1 h prior to dosing. TRPM8 antagonist (10, 30, or 100 mg/kg) or vehicle (5 % Tween 80 in OraPlus®) was injected 2 h before placing an animal in the open-field apparatus. Open-field activity was measured using a system that counts interruptions of a set of photobeams for the course of 60 min (Kinder Scientific, Poway, CA). To begin a session, animals were removed from the home cage and placed individually into an independent Plexiglas box (41 cm L × 41 cm W × 38 cm H) surrounded by a frame consisting of 32 photocells (16Y and 16X) that track the movement of the animal. Photobeam breaks were used as an indication of activity and were measured as the following parameters per minute: basic movements (beam breaks), distance traveled (cm), time spent (s), and number of repetitive beam breaks (i.e., stereotypic movement). Chlordiazepoxide, which consistently elicits a decrease in open field activity, was used as a positive control. Chlordiazepoxide was formulated in saline at 5.6 mg/kg i.p. and dosed 30 min before the start of the open field assay.

Series [2] is described as follows: Pharmacokinetics in plasma and brain, male Sprague-Dawley rats. Conditions: male Sprague-Dawley rat. It is filed as in vivo.
Description: Plasma pharmacokinetics of each compound in male Sprague-Dawley rats (n = 3 animals per study) were determined after intravenous dosing at 2 mg/kg in 100 % dimethylsulfoxide (DMSO) or after administration of 5 mg/kg by oral gavage with test article formulated in 5 % Tween 80 in OraPlus®. At designated time points, blood was collected via the femoral artery and processed for plasma by centrifugation. Plasma was then transferred into a 96-well container and stored in a freezer maintained at −70 °C. Similar bioanalytical methods were used to determine plasma and brain exposure in animals tested in pharmacodynamic and pain models. Brain samples were homogenized with a 4:1 ratio of water (mL) for every gram of brain tissue. […] Calibration standards were prepared from a 1 mg/mL stock solution of each compound in DMSO with a serial dilution into a blank matrix (plasma or brain homogenate). Liquid chromatography with tandem mass spectrometry was used for the quantitation of each compound in rat plasma and brain. Non-compartmental pharmacokinetic analysis of plasma concentrations was conducted using WinNonlin Enterprise v.5.1.1 (Pharsight Corporation, Mountain View, CA). Brain uptake was calculated as a ratio of concentration in whole brain tissue to that in plasma taken from the same animal at approximately the same time.
Series [3] has as its target T1, rat TRPA1 (Rattus norvegicus, UniProt Q6RI86).
T1 construct: expressed in transfected cells; host or cells: CHO, T-REx tetracycline-inducible system (Invitrogen), co-transfected with aequorin
The series can be described thus: Luminescence (aequorin) readout of intracellular calcium, CHO cells expressing rat TRPA1, AITC activation. It is filed as cell-based. From the text:
Stable Chinese hamster ovary (CHO) cell lines expressing rat TRPA1, rat TRPM8, rat TRPV3, and human TRPV4 were generated using the tetracycline-inducible T-REx™ expression system from Invitrogen (Carlsbad, CA) and a stable CHO cell line expressing rat TRPV1 was generated using a constitutive expression system (Klionsky et al. [2007]). To enable a luminescence readout based on intracellular increase in calcium (Le Poul et al. [2002]), each cell line was also co-transfected with pcDNA3.1 plasmid containing jelly fish aequorin cDNA. Twenty-four hours before the assay, cells were seeded in 96-well plates and all TRP channel expression, except for TRPV1, was induced with 0.5 ug/mL tetracycline. […] Luminescence was measured by a CCD camera-based FLASH-luminometer built by Amgen, Inc. The following agonists were used to activate TRP channels: 0.5 uM capsaicin for TRPV1, 80 uM allyl isothiocyanate (AITC) for TRPA1, 1 uM icilin or cold buffer (12 °C) for TRPM8, 200 uM aminoethoxydiphenyl borate (2-APB) for TRPV3, and 1 uM 4α-phorbol 12,13-didecanoate (4α-PDD) for TRPV4. Antagonist IC50 values were calculated using GraphPad Prism 4.01 (GraphPad Software Inc, San Diego, CA).

Series [4] concerns CFA-injected rats. The series can be described thus: CFA-induced hypersensitivity (rearing on prickly floor). It is filed as in vivo, rat. Conditions: 100 mg/kg p.o.; p > 0.05 vs CFA vehicle ([…] s). How it is done:
Rats were habituated in a reversed light cycle room for at least 1 week and to the testing room for 1 h prior to dosing. […] Twenty-one hours after the CFA injection, animals were treated (p.o.) with vehicle (5 % Tween 80 in OraPlus®) or TRPM8 antagonist. Two hours after drug dosing (23 h after CFA injection), rats were placed in the same Kinder Scientific open field boxes as described above but with customized prickly floor inserts placed inside. Rearing time and rearing counts were measured for 60 min.

Series [5] relates to cutaneous C fibers. The series can be described thus: Skin-nerve preparation, mechanically induced firing in cutaneous C fibers. On the set-up: species or system mouse. Conditions: 10 μM; sustained force 5-245 mN; compared to vehicle. From the text: Adult C57BL/6 mice were obtained from Jackson Laboratories and used for ex vivo skin-nerve preparations. Mice were allowed to acclimate to the animal facility at the Medical College of Wisconsin, an Association for the Assessment and Accreditation of Laboratory Animal […] (AALAC)-accredited facility, for approximately 1 week following shipment. Animals were housed with up to four other cagemates and had ad libitum access to food pellets and hyper-chlorinated water. Mice were housed on a 14:10 h light-dark cycle in cages containing aspen bedding and paper nesting material. Room temperatures averaged 21 °C. Prior to use, animals were briefly anesthetized with inhaled isoflurane and then sacrificed via cervical dislocation.
The mouse saphenous skin-nerve in vitro preparation (Koltzenburg et al. [1997]; Stucky et al. [1999]) was used for electrophysiological recordings of cutaneous terminals of primary afferent fibers in situ. […] Once a unit with a signal to noise ratio >2 was identified, the mechanical threshold was determined using calibrated von Frey filaments (range, 0.44–147.0 mN). […]
Wave forms of action potentials evoked by mechanical stimuli were saved on an oscilloscope for comparison of shape and profile. […] Action potentials were discriminated and counted off-line using a spike histogram software extension. […] All data was also analyzed in a blinded manner.

pIC50: −log10 of the molar value. Read-outs that look alike come from different tables or passages of the source.

T1 sequence (Q6RI86 whole entry): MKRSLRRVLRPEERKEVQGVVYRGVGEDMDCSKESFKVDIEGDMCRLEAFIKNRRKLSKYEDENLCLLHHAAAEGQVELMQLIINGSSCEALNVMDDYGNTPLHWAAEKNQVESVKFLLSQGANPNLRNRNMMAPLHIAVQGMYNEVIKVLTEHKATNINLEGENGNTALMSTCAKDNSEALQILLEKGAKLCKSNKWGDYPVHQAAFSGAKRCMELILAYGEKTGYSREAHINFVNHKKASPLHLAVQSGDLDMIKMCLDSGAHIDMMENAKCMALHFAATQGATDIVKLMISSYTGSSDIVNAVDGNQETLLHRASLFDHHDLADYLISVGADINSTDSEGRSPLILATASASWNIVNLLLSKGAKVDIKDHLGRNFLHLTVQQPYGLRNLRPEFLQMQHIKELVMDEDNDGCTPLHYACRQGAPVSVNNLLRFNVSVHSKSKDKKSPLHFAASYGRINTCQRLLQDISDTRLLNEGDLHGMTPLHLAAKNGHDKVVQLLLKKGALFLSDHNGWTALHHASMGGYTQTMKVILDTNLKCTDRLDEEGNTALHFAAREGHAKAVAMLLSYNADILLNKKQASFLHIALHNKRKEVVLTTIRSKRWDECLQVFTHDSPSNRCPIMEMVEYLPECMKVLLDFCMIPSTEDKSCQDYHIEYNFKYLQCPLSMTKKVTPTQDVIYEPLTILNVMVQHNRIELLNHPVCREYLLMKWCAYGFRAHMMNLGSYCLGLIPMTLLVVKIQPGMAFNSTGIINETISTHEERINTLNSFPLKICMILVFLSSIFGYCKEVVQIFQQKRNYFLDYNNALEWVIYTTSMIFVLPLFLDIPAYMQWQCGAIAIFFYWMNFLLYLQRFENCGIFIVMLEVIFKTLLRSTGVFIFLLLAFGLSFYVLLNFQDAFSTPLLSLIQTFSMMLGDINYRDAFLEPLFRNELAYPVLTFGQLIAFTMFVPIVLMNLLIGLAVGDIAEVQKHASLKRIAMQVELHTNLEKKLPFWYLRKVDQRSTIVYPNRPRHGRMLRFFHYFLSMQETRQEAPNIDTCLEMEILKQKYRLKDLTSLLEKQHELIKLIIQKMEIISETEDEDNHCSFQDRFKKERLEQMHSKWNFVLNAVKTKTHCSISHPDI

With `C[C@H](NC(=O)N1CCc2cccnc2[C@H]1c1ccc(C(F)(F)F)cc1)C(F)(F)F` [AMG2850, (R)-8-(4-(trifluoromethyl)phenyl)-N-((S)-1,1,1-trifluoropropan-2-yl)-5,6-dihydro-1,7-naphthyridine-7(8H)-carboxamide], the “total distance traveled, open field” value in series [1] is 13,640 ± 623 cm. The molecule also came in with an Oral bioavailability in series [2] (5 mg/kg oral gavage) of 47%. This molecule had a clearance in series [2] (plasma, iv, i.v. 2 mg/kg) of 7.83 mL/min/kg. In series [2] (plasma, 5 mg/kg oral gavage), this molecule came in with a bioavailability of over 40%. Further, the pIC50 in series [3] (80 uM AITC, read-out: rTRPA1 IC50) is under 4.60; in series [3] (agonism, read-out: rTRPA1 agonism IC50) it was under 4.60. In series [4], the “rearing time, CFA model” value is given as 157 ± 25 s. The “effect on mechanical firing in C fibers” value in series [5] is on record as “no significant effect”.

A word on the clearance: it is the rate of elimination divided by the concentration. A low value points to inefficient removal. For orientation: bioavailability means the share of a dose that reaches the circulation, judged against a reference dose that is usually intravenous. A word on the pIC50: it is the negative decadic logarithm of the IC50, by convention in mol/L.
